In PubChem BioAssay AID248 (DTP/NCI, 2004):
Where “and” joins values, the source holds several entries; their conditions need not be identical. Identical values can stand only once. Toxic doses and inconclusive results are not listed. Rule as the data show it: active = T/C of 150% or more; inactive = T/C below 125%.

System: L1210 leukemia ip in BDF1 mice, survival T/C
Experiment: NCI In Vivo Anticancer Drug Screen. Data for tumor model L1210 Leukemia (intraperitoneal) in B6D2F1 (BDF1) mice
Details: endpoint: mean survival time, higher = longer survival
Outline: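 Value reflects the ratio of survival in compound-treated mice to survival in vehicle-treated controls, with both groups carrying the same transplanted tumor.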

[1] = dose: 25.0 mg/kg/injection, schedule: Q04DX002 (ip), vehicle: Klucel (hydroxypropylcellulose) (HPC)
[2] = dose: 50.0 mg/kg/injection, schedule: Q04DX002 (ip), vehicle: Klucel (hydroxypropylcellulose) (HPC)
[3] = dose: 100.0 mg/kg/injection, schedule: Q01DX009 (ip), vehicle: Klucel (hydroxypropylcellulose) (HPC)
[4] = dose: 100.0 mg/kg/injection, schedule: Q04DX002 (ip), vehicle: Klucel (hydroxypropylcellulose) (HPC)
[5] = dose: 200.0 mg/kg/injection, schedule: Q01DX009 (ip), vehicle: Klucel (hydroxypropylcellulose) (HPC)
[6] = dose: 100.0 mg/kg/injection, schedule: Q04DX003 (ip), vehicle: Klucel (hydroxypropylcellulose) (HPC)
[7] = dose: 200.0 mg/kg/injection, schedule: Q04DX003 (ip), vehicle: Klucel (hydroxypropylcellulose) (HPC)
[8] = dose: 400.0 mg/kg/injection, schedule: Q04DX003 (ip), vehicle: Klucel (hydroxypropylcellulose) (HPC)
[9] = dose: 12.5 mg/kg/injection, schedule: Q01DX009 (ip), vehicle: saline
[10] = dose: 25.0 mg/kg/injection, schedule: Q01DX009 (ip), vehicle: saline
[11] = dose: 50.0 mg/kg/injection, schedule: Q01DX009 (ip), vehicle: saline
[12] = dose: 100.0 mg/kg/injection, schedule: Q01DX009 (ip), vehicle: saline
[13] = dose: 100.0 mg/kg/injection, schedule: Q01DX009 (ip), vehicle: saline with Tween-80
[14] = dose: 100.0 mg/kg/injection, schedule: Q04DX003 (ip), vehicle: saline with Tween-80
[15] = dose: 200.0 mg/kg/injection, schedule: Q01DX009 (ip), vehicle: saline with Tween-80
[16] = dose: 200.0 mg/kg/injection, schedule: Q04DX003 (ip), vehicle: saline with Tween-80
[17] = dose: 400.0 mg/kg/injection, schedule: Q04DX003 (ip), vehicle: saline with Tween-80
[18] = dose: 100.0 mg/kg/injection, schedule: Q01DX001 (ip), vehicle: saline
[19] = dose: 200.0 mg/kg/injection, schedule: Q01DX001 (ip), vehicle: saline
[20] = dose: 400.0 mg/kg/injection, schedule: Q01DX001 (ip), vehicle: saline
[21] = dose: 100.0 mg/kg/injection, schedule: Q01DX001 (ip), vehicle: carboxymethylcellulose (CMC)
[22] = dose: 400.0 mg/kg/injection, schedule: Q01DX001 (ip), vehicle: carboxymethylcellulose (CMC)
[23] = dose: 50.0 mg/kg/injection, schedule: Q01DX001 (ip), vehicle: saline

Measured: T/C

NC(CSS(=O)(=O)O)=NCCSc1ccccc1
inactive: dose: 12.5 mg/kg/injection, schedule: Q04DX002 (ip), vehicle: Klucel (hydroxypropylcellulose) (HPC) 95 % of control | [1] 106 % of control | [2] 106 % of control

CCC(C)C(N)C(=O)OCc1ccccc1 (stereo not given)
inactive: dose: 50.0 mg/kg/injection, schedule: Q01DX009 (ip), vehicle: Klucel (hydroxypropylcellulose) (HPC) 88 % of control | [3] 90 % of control | [4] 95 % of control | [5] 92 % of control | dose: 200.0 mg/kg/injection, schedule: Q04DX002 (ip), vehicle: Klucel (hydroxypropylcellulose) (HPC) 92 % of control | dose: 400.0 mg/kg/injection, schedule: Q04DX002 (ip), vehicle: Klucel (hydroxypropylcellulose) (HPC) 89 % of control

O=C1c2ccccc2C(=O)c2c(O)cccc21
inactive: [6] 101 % of control | [7] 89 % of control | [8] 105 % of control

C[P+]1(C)CC2OC2C1 (stereo not given)
inactive: [9] 91 % of control | [10] 102 % of control | [11] 94 % of control | [12] 91 % of control

CC(C)COC(=O)c1cc(O)c(O)c(O)c1
inactive: [13] 100 % of control | [14] 97 % of control | [15] 107 % of control | [16] 105 % of control | dose: 400.0 mg/kg/injection, schedule: Q01DX009 (ip), vehicle: saline with Tween-80 107 % of control | [17] 95 % of control

CC12OC(c3ccccc3)(C3=C1C1CCC(C1)C3(C)C)c1ccccc12 (stereo not given)
inactive: [11] 89 % of control | [18] 103 % of control | [19] 100 % of control | [20] 112 % of control

CCC(/C=N\NC(=O)CCCC(=O)N/N=C/C(CC)CC)CC
inactive: dose: 50.0 mg/kg/injection, schedule: Q01DX001 (ip), vehicle: carboxymethylcellulose (CMC) 90 % of control | [21] 90 % of control | [22] 90 % of control

CCCCSP(=O)(SCCCC)c1ccccc1
inactive: dose: 100.0 mg/kg/injection, schedule: Q01DX001 (ip), vehicle: Klucel (hydroxypropylcellulose) (HPC) 100 % of control | dose: 200.0 mg/kg/injection, schedule: Q01DX001 (ip), vehicle: Klucel (hydroxypropylcellulose) (HPC) 102 % of control | dose: 400.0 mg/kg/injection, schedule: Q01DX001 (ip), vehicle: Klucel (hydroxypropylcellulose) (HPC) 95 % of control

O=C(O)c1ccc(CCc2cccnc2)cc1
inactive: dose: 100.0 mg/kg/injection, schedule: Q01DX001 (ip), vehicle: saline with Tween-80 96 % of control | dose: 200.0 mg/kg/injection, schedule: Q01DX001 (ip), vehicle: saline with Tween-80 98 % of control

CC(=O)Nc1ccc(/C=C(\C#N)c2ccc(C)cc2)cc1
inactive: [14] 87 % of control | [16] 90 % of control | [17] 101 % of control

O=C1Nc2ccccc2/C1=C/C(=O)c1c[nH]c2ccccc12
inactive: dose: 50.0 mg/kg/injection, schedule: Q01DX009 (ip), vehicle: saline with Tween-80 101 % of control | [13] 101 % of control | [15] 96 % of control

CCCCCCCCCCCCNC=O
inactive: [12] 94 % of control

CN(C)C=C1C(=O)c2ccccc2C1=O
inactive: [14] 105 % of control | [16] 107 % of control

CCOc1ccccc1C1CCCCC1OS(=O)(=O)c1ccc(C)cc1 (stereo not given)
inactive: dose: 50.0 mg/kg/injection, schedule: Q01DX009 (ip), vehicle: acetone 92 % of control | dose: 100.0 mg/kg/injection, schedule: Q01DX009 (ip), vehicle: acetone 94 % of control and 92 % of control | dose: 200.0 mg/kg/injection, schedule: Q01DX009 (ip), vehicle: acetone 105 % of control and 90 % of control

CN(C)c1ncnc2c1ncn2C1OC(CO)C(N)C1O (stereo not given)
inactive: dose: 6.25 mg/kg/injection, schedule: Q01DX009 (ip), vehicle: saline 111 % of control | [9] 111 % of control | [10] 117 % of control | [23] 109 % of control | [18] 109 % of control | [19] 109 % of control | [20] 115 % of control

NC(=O)/C(=C\c1ccncc1)c1cccc2ccccc12
inactive: [3] 97 % of control | [14] 108 % of control | [5] 97 % of control | [16] 88 % of control

CCCCCCCCCCCCC/C=N/Nc1nnc(N/N=C/CCCCCCCCCCCCC)c2ccccc12
inactive: [23] 106 % of control | [18] 106 % of control | [19] 109 % of control | [20] 118 % of control

CC(=O)NCC1OC(COCc2ccccc2)C(OCc2ccccc2)C1OCc1ccccc1 (stereo not given)
inactive: [6] 107 % of control | [7] 96 % of control | [8] 107 % of control

N=C(N)SCc1ccc(Cl)cc1N
inactive: [1] 97 % of control | [2] 102 % of control | [4] 103 % of control

C(=NC1CCCCC1)=NC1CCCCC1
inactive: dose: 2.5 mg/kg/injection, schedule: Q04DX003 (ip), vehicle: Klucel (hydroxypropylcellulose) (HPC) 105 % of control | dose: 5.0 mg/kg/injection, schedule: Q04DX003 (ip), vehicle: Klucel (hydroxypropylcellulose) (HPC) 105 % of control | dose: 10.0 mg/kg/injection, schedule: Q04DX003 (ip), vehicle: Klucel (hydroxypropylcellulose) (HPC) 106 % of control

O=C(Nc1ccc([N+](=O)[O-])cc1)N(c1ccccn1)c1ccccn1
inactive: [21] 89 % of control | dose: 200.0 mg/kg/injection, schedule: Q01DX001 (ip), vehicle: carboxymethylcellulose (CMC) 91 % of control | [22] 95 % of control

O=C(CC(=O)c1ccccc1)c1ccccc1
inactive: dose: 100.0 mg/kg/injection, schedule: Q04DX002 (ip), vehicle: saline with Tween-80 97 % of control | dose: 200.0 mg/kg/injection, schedule: Q04DX002 (ip), vehicle: saline with Tween-80 102 % of control | dose: 400.0 mg/kg/injection, schedule: Q04DX002 (ip), vehicle: saline with Tween-80 94 % of control

CNc1ccc(N=Nc2ccc3ncccc3c2)cc1
inactive: dose: 3.8 mg/kg/injection, schedule: Q01DX009 (ip), vehicle: saline 98 % of control | dose: 6.7 mg/kg/injection, schedule: Q01DX Z (ip), vehicle: carboxymethylcellulose (CMC) 98 % of control | dose: 7.5 mg/kg/injection, schedule: Q01DX009 (ip), vehicle: saline 102 % of control | dose: 10.0 mg/kg/injection, schedule: Q01DX Z (ip), vehicle: carboxymethylcellulose (CMC) 92 % of control | dose: 15.0 mg/kg/injection, schedule: Q01DX009 (ip), vehicle: saline 98 % of control | dose: 15.0 mg/kg/injection, schedule: Q01DX Z (ip), vehicle: carboxymethylcellulose (CMC) 92 % of control | dose: 30.0 mg/kg/injection, schedule: Q01DX009 (ip), vehicle: saline 89 % of control

COC(=O)C1=C(c2ccncc2)c2cccc3cccc1c23
inactive: dose: 100.0 mg/kg/injection, schedule: Q04DX003 (ip), vehicle: alcohol 94 % of control | dose: 200.0 mg/kg/injection, schedule: Q04DX003 (ip), vehicle: alcohol 102 % of control
